# In US10722496B2, “2-iminobiotin for use in the treatment of brain cell injury” (Neurophyxia B.V., priority 2015, dated 2020):
# Tests used:
# [1] = Toxicokinetics, repeated i.v. pulse infusions to adult rats; assay type: in vivo, rat; conditions: for mean AUC 0-4-hour: 6.6 mg/kg per 15-minute i.v. pulse, first and last pulse
# Procedure: The toxicokinetics of 2-IB was studied over a 96-hour period by i.v. pulse infusions to adult rats. The purpose of this study was to generate toxicokinetic parameters (Cmax, tmax, AUC, t1/2) from 2-IB plasma concentrations in male and female rats after repeated i.v. infusion.
# Group 1 received vehicle only. Systemic exposure was monitored on day 0 and day 4. Blood sampling was conducted at 15 minutes and 0.5, 1 and 4 hours after the first infusion, and 15 minutes and 0.5, 1, 4, 8 and 24 hours following the last dose.
# 4VO rat model = test: Morris water maze after four-vessel occlusion (4VO); assay type: in vivo; conditions: for memory test, time spent in the right quadrant on day 32: 12 and 24 hours, mean±SD
# Procedure: The rats were anesthetized using ketamine (90 mg/kg) and xylazine sodium ([…]), as described earlier (Meilin et al., 2014). The first cervical vertebrata was exposed and the vertebral arteries were permanently occluded by electrocauterization. The common carotid arteries were isolated through a ventral midline neck incision and lifted using a 4.0 silk suture ligature, placed around them.
# Twenty-four hours post vertebral arterial occlusion, the animals were reanesthetized using isoflurane. The common carotid arteries were exposed and occluded using microaneurysm clips for 15 minutes. After removing the clips reperfusion occurred. The skin of the incision at the neck was sutured using 4-0 silk suture. During the operation animal's core temperature was monitored using a rectal probe (Model 400; YSI Inc., Yellow Springs, Ohio, USA) connected to a thermometer (Model 8402-00; Cole-Parmer Instrument Co. Ltd, London, UK). The ischemic insult was initiated when a rectal temperature of 37-38° C. was achieved, and this temperature was maintained throughout the procedure using a heating mattress.
# During the acclimatization period rats were randomly assigned to experimental groups. The animals were subjected to 4VO per cage or one rat per cage was subjected to HI. Rats received either vehicle (normal saline at pH 3.8-4.0) or 2-IB (1.1 mg/kg, 3.3 mg/kg, 10 mg/kg and 30 mg/kg dissolved in 5 ml/kg normal saline at pH 3.8-4.0). Each dosing group was kept in separate cages to avoid cross-contamination by consuming stools during the study period. The experimental groups were as follows.
# Tests were performed during day-time. Rats were introduced to a standardized 1.2 m-diameter pool filled with water for 120 seconds or until they located a platform hidden 1 cm below the water surface. Several visual cues were provided within the room in which the pool was located to allow rats to spatially navigate the water maze. […] Rats were allowed two attempts to find the hidden platform, and this learning test was performed over a period of 4 days (days 28-31). The memory test was performed on the fifth day (day 32), at which time the hidden platform was removed, and rats were placed in the pool for a single 60-second trial. The amount of time that each rat spent in the quadrant, where the hidden platform had previously been located, was recorded by an observer who was blinded to the experimental groups.
# The Morris water maze was used to evaluate how well the rats remembered the location of the hidden platform, and whether they had learned to navigate towards the appropriate quadrant. The time that the rat spent in the right quadrant was measured. This was considered the primary outcome.
# During the learning test the time to find a hidden platform in the water was calculated. Also the area under the curve (AUC) of the subsequent learning tests was calculated. These parameters were considered secondary outcomes.
# [2] = tested on: piglet model of perinatal global hypoxia-ischemia (HI); conditions: Peeters-Scholte et al., 2002; cited from earlier work
# [3] = Phase I clinical study pharmacokinetics, pulse i.v. infusion in healthy male subjects; assay type: in vivo, human; conditions: for mean AUC 4 hours: 6 pulses of 0.6 mg/kg in a 24-hour period
# Description: The pharmacokinetics of 2-IB have been investigated in a Phase I clinical study in which the safety and tolerability of single and multiple doses of 2-IB pulse i.v. infusion in healthy male subjects were investigated. The study was a randomized, double-blind, placebo-controlled, dose escalation study with 3 groups of 6 healthy male subjects receiving a single i.v. infusion or pulsed i.v. infusions of 2-IB or placebo in 3 periods. Treatments were randomized such that each subject received 2 out of 3 foreseen dose levels of 2-IB and once placebo.
# IMR-32 cells = test: Metabolic activity assay (MTS); assay type: cell-based, human
# Procedure: In vitro hypoxia was induced in the cell cultures by using our recently described system with minor modifications (Huang et al., 2013b; Weber et al., 2015; Zitta et al., 2010). Enzyme stock solutions (100×) of catalase and glucose oxidase (both from Sigma-Aldrich) were prepared in cell culture medium (DMEM/F12, 1% FCS; final concentration: 120 U/ml and 2 U/ml respectively; Sigma-Aldrich) leading to a decrease of partial pressure of oxygen (pO2) below 10 mmHg within 5 minutes. Hypoxic conditions were confirmed by using a tissue oxygen pressure monitor (LICOX® CMP Oxygen Catheter; Integra, Plainsboro, USA). After 7 hours of hypoxia, the cells were washed twice with PBS (PAA) and fresh normoxic medium supplemented with solvent (citrate buffer 1%) or 2-IB (10, 30, 50, 100 and 300 ng/mL) was added to the cells. Investigations of cell damage, metabolic activity, ROS, hydrogen peroxide, nitrite/nitrate production, erkl/2, akt and stat5 phosphorylation as well as cell stress protein expression were performed with cell culture media or cell protein (FIG. 1).
# Metabolically active cells were evaluated by using a colorimetric kit (CELLTITER96® AQueous One Solution Reagent G3580 Promega Madison, Wis., USA). Samples were prepared concerning to the manufacturer's protocol. Briefly, 4×10^4 cells were seeded per well in a 96-well plate with 100 μl DMEM/F12 supplemented with 10% FCS per well. After 2 days in culture, normoxia or hypoxia was applied for 7 hours followed by the addition of 2-IB or the respective solvent control (citrate 1%) for 17 hours. After that, 20 μl of […] reagent were added to each well for 2.5 hours at 37° C. Metabolic active cells generate a colored product, the absorbance of which was measured at 490 nm using an ELISA reader (Tecan, Crailsheim, Austria) in combination with the Magellan software v1.1.
smiles,measurement,setting,value
"N=C1N[C@H]2[C@H](CS[C@H]2CCCCC(=O)O)N1 [2-IB, 2-iminobiotin]",mean AUC 0-4-hour,[1]; 1st of four values printed for male and female rats,2310 ng·h/mL
same,mean AUC 0-4-hour,[1]; 2nd of four values printed for male and female rats,2530 ng·h/mL
same,mean AUC 0-4-hour,[1]; 3rd of four values printed for male and female rats,1750 ng·h/mL
same,mean AUC 0-4-hour,[1]; 4th of four values printed for male and female rats,1950 ng·h/mL
same,overall mean AUC 0-4-hour,"[1]; 6.6 mg/kg per pulse, across sexes and first and last pulses",about 2135 ng·h/mL
same,AUC expected,"[1]; rat, 3.3 mg/kg dose level, assuming linear PK",about 1068 ng·h/mL
same,AUC of the learning test from day 28 until 31,4VO rat model; 1.1 mg/kg/dose s.c.,276±85
same,"memory test, time spent in the right quadrant on day 32",4VO rat model; 1.1 mg/kg/dose s.c. upon reperfusion,10.7 ± 4.4 s
same,AUC of the learning test from day 28 until 31,4VO rat model; 3.3 mg/kg/dose s.c.,266±64
same,"memory test, time spent in the right quadrant on day 32",4VO rat model; 3.3 mg/kg/dose s.c. upon reperfusion,12.7 ± 6.7 s
same,AUC of the learning test from day 28 until 31,4VO rat model; 10 mg/kg/dose s.c.,297±79
same,"memory test, time spent in the right quadrant on day 32",4VO rat model; 10 mg/kg/dose s.c. upon reperfusion,12.0 ± 7.3 s
same,AUC of the learning test from day 28 until 31,4VO rat model; 30 mg/kg/dose s.c.,287±89
same,"memory test, time spent in the right quadrant on day 32",4VO rat model; 30 mg/kg/dose s.c. upon reperfusion,12.5 ± 6.0 s
same,"learning test day 28 to day 31, time to find the hidden platform vs vehicle-treated rats","4VO rat model; 1.1 (p<0.05), 3.3 (p<0.01) and 30 mg/kg/dose (p<0.05), Dunnett's post hoc",significant difference
same,neurological damage,[2],reduces the amount of neurological damage
same,mean AUC 0-4 hours on average,"[3]; 0.6 mg/kg pulses, during the 24-hour dosing period",about 1305 ng·h/mL
same,mean AUC 4 hours,[3]; after the first infusion,1170 ng·h/mL
same,mean AUC 4 hours,[3]; after the last infusion,1441 ng·h/mL
same,metabolic activity,"IMR-32 cells; 10 ng/ml 2-IB, hypoxia",0.44±0.10 a.u.
same,metabolic activity,"IMR-32 cells; 10 ng/ml 2-IB, normoxia, 17 hours after hypoxia",0.44±0.08 a.u.
same,metabolic activity,"IMR-32 cells; 30 ng/ml 2-IB, hypoxia",0.45±0.09 a.u.
same,metabolic activity,"IMR-32 cells; 30 ng/ml 2-IB, normoxia",0.49±0.08 a.u.
same,metabolic activity,"IMR-32 cells; 50 ng/ml 2-IB, hypoxia",0.41±0.06 a.u.
same,metabolic activity,"IMR-32 cells; 50 ng/ml 2-IB, normoxia",0.50±0.08 a.u.
same,metabolic activity,"IMR-32 cells; 100 ng/ml 2-IB, hypoxia",0.33±0.06 a.u.
same,metabolic activity,"IMR-32 cells; 100 ng/ml 2-IB, normoxia",0.58±0.09 a.u.
same,metabolic activity,"IMR-32 cells; 300 ng/ml 2-IB, hypoxia",0.33±0.07 a.u.
same,metabolic activity,"IMR-32 cells; 300 ng/ml 2-IB, normoxia",0.63±0.09 a.u.
same,"hypoxia-induced reduction of metabolic activity, most efficient concentrations","IMR-32 cells; 10-300 ng/ml tested, P<0.01 vs. control","most efficiently counteracted by 10, 30 and 50 ng/ml 2-IB"
